The values that follow come from patent US10520504B2, “Fluorescent polybranched probes for detecting bacteria and/or fungi in vitro and in vivo” (priority 2014, dated 2019).

Data set [1] has as its target T1, human neutrophil elastase (HNE) (Homo sapiens, UniProt P08246).
T1 construct: endogenous in cells; host or cells: isolated human neutrophils (co-culture with MSSA or P. aeruginosa)
T1 sequence (P08246 30-267): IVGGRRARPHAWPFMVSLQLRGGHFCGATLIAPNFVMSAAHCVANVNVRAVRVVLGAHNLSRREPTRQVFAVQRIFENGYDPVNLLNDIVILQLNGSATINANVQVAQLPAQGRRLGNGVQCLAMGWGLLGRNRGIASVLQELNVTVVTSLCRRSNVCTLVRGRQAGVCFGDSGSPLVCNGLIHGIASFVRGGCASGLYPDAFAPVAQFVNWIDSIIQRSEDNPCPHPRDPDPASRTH
The data set can be described thus: Elastase dependent bacterial labelling in co-culture of bacteria and neutrophils. In kind it is cell-based. The following applies: for labelling of activated neutrophils: TAMRA signal; for elastase dependent bacterial labelling: bacteria with neutrophils. From the text: A first example of elastase sensitive probes (shown schematically in FIG. 16A) comprises methyl red (acting as a dark quencher) connected via the peptide sequence AAPV (SEQ. ID NO: 9). (acting as the enzyme cleavable peptide sequence of the cleavable linker) to 7-nitrobenz-2-oxa-1,3-diazole (NBD) and the ubiquicidin fragment UBI29-41 (together acting as the probe element). Accordingly, the NBD fluorescence is quenched by the methyl red and no fluorescent signal will be observed (i.e. the methyl red and NBD are acting as a FRET pair) and therefore, whether or not the probe is bound to any bacteria that may be present in the target area via UBI29-41, no signal is observed using confocal microscopy.
When the probe is in the presence of human neutrophil elastase (HNE), such as in inflamed tissue, HNE cleaves the peptide sequence of the linker, to thereby free the probe element from the methyl red quencher. Accordingly, the NBD fluorophore is no longer quenched and produces a fluorescent signal. In addition, due to the environmental sensitivity of the NBD, the signal produced is greatly amplified if the NBD is in a hydrophobic environment, such as within a cell membrane.

The target in the next data set is elastase (Homo sapiens, UniProt P08246). Particulars: ex 525 nm, Em 580 nm.
A short description of data set [2]: Stability in saline or ALI BALF by MALDI-TOF MS / FTMS. Particulars: incubated 30 minutes. As to the method:
Secondly we assessed stability of the probes in BALF from patients with ALI by FTMS and MALDI-TOF MS analysis. NBD-UBINle, NBD-UBIdend and NBD-PMX were incubated for 30 minutes with BALF (FIG. 13).
In vitro labelling was assessed on benchtop confocal in the presence of compound with bacteria and labelling was compared to NBD-UBINle which served as a reference control for bacterial labelling. […] For the ex vivo and in vivo ovine lung experiments each compound was assessed in a control lung segment (instilled with 2 ml PBS) or a bacterial segment (instilled with 2 ml of 2 optical density of bacteria). Following bacterial instillation, the compound was administered to the segment of interest and this was imaged by probe based FCFM.
Probe was added to saline or pooled BALF from patients with ALI incubated for 30 minutes. A ZipTip (C-18, 0.2 μL) with 5 μL MeCN (with 0.1% TFA as an additive) followed by 20 μL of H2O was washed. The ZipTip was loaded with the sample, washed and eluted into 5 μL of 80% aq. MeCN (with 0.1% TFA as an additive). The sample was analysed by MALDI-TOF (PerSeptive Biosystems Voyager DE™STR MALDI-TOF mass spectrometer (Applied Biosystems, Foster City, Calif.)).

“Also recorded” adds a separate entry of the source. Numbered stars: 1 amine (or outer) side, 2 acyl side, 3 side chain; on linkers, the order of the positions; unused ones are H or OH. Bridge positions count the residues as written; N and C are the ends. Square brackets hold non-standard residues; d marks the D form. Ends that are not written are not given here. Peptide text beside a SMILES is read from it. I, II: the chains in the order shown. * marks the point of attachment. ξ: configuration not given here. X2 = CN(C)c1ccc2c(c1)Oc1cc(N(C)C)ccc1C21OC(=O)c2ccc(C(=O)*)cc21; X1 = NC(=O)NC(COCCCN[*:1])(COCCCN[*:2])COCCCN[*:3]; NBD = O=[N+]([O-])c1ccc(*)c2nonc12; dDab = NCC[C@@H](N)C(=O)O; Nle = CCCC[C@H](N)C(=O)O; Dab = NCC[C@H](N)C(=O)O; AEEA = NCCOCCOCC(=O)O; ξDab = NCCC(N)C(=O)O; ξK = NCCCCC(N)C(=O)O; ξV = CC(C)C(N)C(=O)O; Ahx = NCCCCCC(=O)O; ξP = O=C(O)C1CCCN1; ξA = CC(N)C(=O)O

In the case of `CC(C)C[C@H]1NC(=O)[C@@H](Cc2ccccc2)NC(=O)[C@@H](CCN)NC(=O)C(NC(=O)[C@H](CCN)NC(=O)[C@@H](NC(=O)COCCOCCNC(=O)C(CCCCNc2ccc([N+](=O)[O-])c3nonc23)NC(=O)C(NC(=O)C2CCCN2C(=O)C(C)NC(=O)C(C)NC(=O)c2ccc3c(c2)C2(OC3=O)c3ccc(N(C)C)cc3Oc3cc(N(C)C)ccc32)C(C)C)[C@@H](C)O)CCNC(=O)[C@@H]([C@H](C)O)NC(=O)[C@H](CCN)NC(=O)[C@H](CCN)NC1=O` (stereo partly drawn) [TAMRA-AAPV-NBD-PMX] (X2-[ξA][ξA][ξP][ξV][ξK](NBD)[AEEA]T[Dab][ξDab][dDab][dF][dL][Dab][Dab][dT]; lactam 9-C), in data set [1] (P. aeruginosa), the “bacterial labelling with unactivated neutrophils” value is listed as “no labelling in the presence of unactivated neutrophils”. Also, in data set [1], the “labelling of activated neutrophils” value is listed as “labelling of activated neutrophils in an elastase independent manner” and the “elastase dependent bacterial labelling” value is given as “bacterial labelling in an elastase dependent manner”. Further, in data set [1] (listed as Example 2), the “labelling of activated neutrophils” value is listed as “labelled by the TAMRA moiety” and the “elastase dependent bacterial labelling” value is reported as “the bacteria are labelled by the probe element”. For the same molecule, the “TAMRA fluorescence increase with elastase inhibitor” value on elastase is on record as “inhibited with an elastase inhibitor”. Moreover, on elastase (elastase), the “fluorescence of TAMRA following cleavage” value is given as “increase in fluorescence”.

As to “I: {NBD-AEEA}-TGRAKRR[Nle]QYNRR[AEEA] / II: {NBD-AEEA}-TGRAKRR[Nle]QYNRR[AEEA] / III: {NBD-AEEA}-TGRAKRR[Nle]QYNRR[AEEA] (linker I:C-II:C-III:C via X1) [NBD-UBIdend]”, the “stability in BALF from patients with ALI” value in data set [2] is recorded as “remains stable; also recorded: demonstrate stability”.

On to `CCCC[C@H](NC(=O)[C@H](CCCNC(=N)N)NC(=O)[C@H](CCCNC(=N)N)NC(=O)[C@H](CCCCN)NC(=O)[C@H](C)NC(=O)[C@H](CCCNC(=N)N)NC(=O)CNC(=O)[C@@H](NC(=O)CCCCCNc1ccc([N+](=O)[O-])c2nonc12)[C@@H](C)O)C(=O)N[C@@H](CCC(N)=O)C(=O)N[C@@H](Cc1ccc(O)cc1)C(=O)N[C@@H](CC(N)=O)C(=O)N[C@@H](CCCNC(=N)N)C(=O)N[C@@H](CCCNC(=N)N)C(N)=O` [NBD-UBINle] ({NBD-Ahx}-TGRAKRR[Nle]QYNRR-NH2; N-terminus and C-terminus assumed), for which the “stability in BALF from patients with ALI” value in data set [2] is given as “degradation; also recorded: instability in lavage fluid”.

“Example 1: methyl red dark quencher connected via AAPV to NBD and ubiquicidin fragment UBI29-41 (also: methyl red quencher attached, side not given here, NBD and ubiquicidin fragment UBI29-41 attached, side not given here)”: the “elastase dependent bacterial labelling” value in data set [1] was “cleaved by neutrophil derived HNE and to label bacteria”. Further, the “bacterial labelling with elastase inhibitor” value in data set [1] (sivelestat added to the medium) is listed as “no labelling was observed”.
